Data published in patent publication US9072734B2, “Quaternary ammonium salt compounds” (Teijin Pharma Limited, priority 2009, dated 2015).
Counter-ions that a name gives are not always drawn.

How the values were obtained:
[1] = biological target: T1, human β2 adrenergic receptor (Homo sapiens, UniProt P07550); assay: Whole-cell cAMP Flashplate assay using CHO-K1 cells stably expressing human β2 adrenergic receptor; format: cell-based; conditions: cAMP production
T1 construct: expressed in transfected cells; host or cells: CHO-K1
T1 sequence (P07550 whole entry): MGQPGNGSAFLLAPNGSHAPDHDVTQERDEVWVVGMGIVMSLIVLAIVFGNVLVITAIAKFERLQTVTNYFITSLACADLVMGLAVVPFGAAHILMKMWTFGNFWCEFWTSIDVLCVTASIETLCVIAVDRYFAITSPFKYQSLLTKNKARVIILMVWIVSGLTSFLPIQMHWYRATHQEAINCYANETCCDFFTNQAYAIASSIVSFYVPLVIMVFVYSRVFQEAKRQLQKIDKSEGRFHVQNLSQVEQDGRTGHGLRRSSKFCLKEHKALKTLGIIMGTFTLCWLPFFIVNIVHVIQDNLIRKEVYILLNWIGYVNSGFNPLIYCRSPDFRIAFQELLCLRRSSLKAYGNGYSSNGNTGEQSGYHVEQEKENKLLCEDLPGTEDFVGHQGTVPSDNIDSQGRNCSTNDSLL
Experimental: The β2 adrenergic receptor, which couples to Gs proteins, activates adenylate cyclase upon agonist binding to the receptor. As a result, cAMP is produced in cells. The activation ability of the β2 adrenergic receptor can be measured by measuring the amount of the cAMP with cAMP-Screen System (Applied Biosystems).
CHO-K1 cells expressing the human β2 adrenergic receptor suspended in Ham's F-12 media containing 10% FBS were seeded into 96-well plates at a volume of 100 μL/well. Next day, they were washed with 200 μL PBS(−), to which 80 μL of 0.5 mM IBMX solution (Ham's F-12 media containing 0.05% BSA) was then added, followed by incubation for 20 minutes at 37° C. in the presence of 5% carbon dioxide. 20 μL of 9 concentrations of test compound solutions (0.5 mM IBMX solution containing 1% DMSO) prepared at concentrations in a range of 0.01-1000 nM with 2-fold serial dilution) were added, followed by incubation for 20 minutes at 37° C. in the presence of 5% carbon dioxide. Then, 100 μL of Assay/Lysis Buffer (a reagent that comes with cAMP Screen System) was added. The cells were lysed by pipetting, further incubated for 30 minutes at 37° C., and then frozen at −80° C. After several days, samples, thawed at room temperature, were treated according to the protocol of cAMP Screen System, and then chemiluminescence was measured by EnVision (PerkinElmer, Inc.). The amount of cAMP was calculated from the standard curve for the standard attached to cAMP Screen System.
The concentrations of a test compound at which 50% of its maximal effect is reached (EC50 values) were analyzed by a four-parameter logistic model using XLfit4 (IDBS, Ltd.) for the amounts of cAMP production at different concentrations of the test compounds.

[2] = biological target: T2, human M3 muscarinic receptor (Homo sapiens, UniProt P20309); assay: Inhibitory effect on methacholine-induced calcium influx, FLIPR assay, CHO-K1 cells stably expressing the human M3 muscarinic receptor; format: cell-based; conditions: inhibition of calcium influx induced by methacholine
T2 construct: expressed in transfected cells; host or cells: CHO-K1
T2 sequence (P20309 whole entry): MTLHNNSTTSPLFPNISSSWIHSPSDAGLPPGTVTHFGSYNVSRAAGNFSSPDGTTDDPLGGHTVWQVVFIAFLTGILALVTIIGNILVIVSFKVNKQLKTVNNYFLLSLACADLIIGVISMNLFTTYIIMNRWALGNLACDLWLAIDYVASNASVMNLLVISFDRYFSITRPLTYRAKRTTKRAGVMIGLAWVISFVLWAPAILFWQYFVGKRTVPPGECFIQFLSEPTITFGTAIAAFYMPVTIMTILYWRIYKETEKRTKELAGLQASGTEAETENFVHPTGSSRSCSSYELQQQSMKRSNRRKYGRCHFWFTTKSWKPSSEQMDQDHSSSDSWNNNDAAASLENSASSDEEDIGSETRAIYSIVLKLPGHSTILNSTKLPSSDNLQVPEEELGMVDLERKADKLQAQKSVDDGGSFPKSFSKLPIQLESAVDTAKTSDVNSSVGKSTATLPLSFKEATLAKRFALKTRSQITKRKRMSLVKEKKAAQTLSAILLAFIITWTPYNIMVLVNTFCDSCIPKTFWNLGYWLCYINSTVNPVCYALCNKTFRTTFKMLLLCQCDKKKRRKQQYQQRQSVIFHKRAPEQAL
Source text: Muscarinic receptor subtypes (M1, M3 and M5 receptors), which couple to Gq proteins, activate the phospholipase C (PLC) pathway upon agonist binding to the receptor. As a result, the activated PLC hydrolyzes phosphatidyl inositol diphosphate (PIP2) to diacyl glycerol (DAG) and […] (IP3), which in turn generates calcium release from intracellular stores, i.e., endoplasmic and sarcoplasmic reticula. By utilizing FLIPR (Molecular Devices, Inc.) assay in which a calcium sensitive dye (Component A) is used that fluoresces when free calcium binds, the increase in intracellular calcium is measured on the basis of the change in the fluorescence intensity.
Methacholine was added to CHO-K1 cells stably expressing the human M3 muscarinic receptor to induce calcium influx and evaluate the inhibitory effect of test compounds. In the experiment, a FLIPR Calcium assay kit (Molecular Devices, Inc.) was used.
CHO-K1 cells stably expressing the human M3 muscarinic receptor suspended in Ham's F-12 media (Invitrogen, Co.) containing 10% fetal bovine serum (FBS) were seeded into 96-well FLIPR plates at a volume of 100 μL/well. Next day, 60 μL/well of Non-wash-dye solution (Hank's buffered salt solution, HBSS, containing 20 mM HEPES and 6.5 mM probenecid) was added to the cells, which were then incubated for an hour at 37° C. in the presence of 5% carbon dioxide. 20 μL of 10 concentrations of test compound solutions (HBSS containing 1% DMSO, 20 mM HEPES, 2.5 mM probenecid and 0.05% bovine serum albumin, BSA) prepared at concentrations in a range of 0.01-1000 nM with 2-fold serial dilution) were added, followed by incubation for 180 seconds. Then, 20 μL of 30 nM methacholine solution (HBSS containing 20 mM HEPES, 2.5 mM probenecid and 0.05% bovine serum albumin, BSA) was added, and fluorescence intensity was traced by the intracellular calcium influx measuring device FLIPR 96 (Molecular Devices, Inc.) for 170 seconds. The difference between the lowest and the highest values of the fluorescence intensity (FI) over the period of the measurement was used as a measured value. The percentages of inhibition by the test compounds were calculated according to the following formula from the measured value of the methacholin-added and test compound non-added sample (FIpositive), the measured value of the methacholin non-added and test compound non-added sample (FInegative), and the measured value of the methacholin-added and test compound-added sample (FItest). (%) Percentage of inhibition by test compound=[(1−(FItest−FInegative)/(FIpositive−FInegative)]×100
The 50% inhibitory concentrations (IC50 values) of test compounds were analyzed by a four-parameter logistic model using XLfit4 (IDBS, Ltd.) for the percentage of the inhibition by different concentrations of test compounds.

Structure (SMILES) | EC50 [1] | IC50 [2]
CCOc1cc(NC(=O)CCCc2ccc(-c3ccccc3)c(NC(=O)OC3CC[N+](C)(C)CC3)c2)c(Cl)cc1CNC[C@H](O)c1ccc(O)c2[nH]c(=O)ccc12 [Example 26, 4-({[5-(3-{[2-chloro-5-ethoxy-4-({[(2R)-2-hydroxy-2-(8-hydroxy-2-oxo-1,2-dihydroquinolin-5-yl)ethyl]amino}methyl)phenyl]carbamoyl}propyl)-2-phenylphenyl]carbamoyl}oxy)-1,1-dimethylpiperidin-1-ium trifluoroacetate] | 0.9 nM | 23.2 nM
C[N+]1(C)[C@@H]2CC(OC(=O)Nc3cc(CCCC(=O)Nc4ccc(CNC[C@H](O)c5ccc(O)c6[nH]c(=O)ccc56)cc4Cl)ccc3-c3ccccc3)C[C@H]1[C@@H]1O[C@@H]12 (stereo partly drawn) [Example 37, (1R,2R,4S,5S,7S)-7-({[5-(3-{[2-chloro-4-({[(2R)-2-hydroxy-2-(8-hydroxy-2-oxo-1,2-dihydroquinolin-5-yl)ethyl]amino}methyl)phenyl]carbamoyl}propyl)-2-phenylphenyl]carbamoyl}oxy)-9,9-dimethyl-3-oxa-9-azatricyclo[3.3.1.0^2,4]nonan-9-ium trifluoroacetate] | 4 nM | 18.2 nM
COc1cc(NC(=O)CCc2ccc(-c3ccccc3)c(NC(=O)O[C@@H]3C[C@@H]4[C@H]5O[C@H]5[C@H](C3)[N+]4(C)C)c2)ccc1CNC[C@H](O)c1ccc(O)c2[nH]c(=O)ccc12 [Example 42, (1R,2R,4S,5S,7S)-7-({[5-(2-{[4-({[(2R)-2-hydroxy-2-(8-hydroxy-2-oxo-1,2-dihydroquinolin-5-yl)ethyl]amino}methyl)-3-methoxyphenyl]carbamoyl}ethyl)-2-phenylphenyl]carbamoyl}oxy)-9,9-dimethyl-3-oxa-9-azatricyclo[3.3.1.0^2,4]nonan-9-ium trifluoroacetate] | 0.8 nM | 12.3 nM
COc1cc(CNC[C@H](O)c2ccc(O)c3[nH]c(=O)ccc23)ccc1NC(=O)CCc1ccc(-c2ccccc2)c(NC(=O)OC2CC[N+](C)(C)CC2)c1 [Example 10, 4-({[5-(2-{[4-({[(2R)-2-hydroxy-2-(8-hydroxy-2-oxo-1,2-dihydroquinolin-5-yl)ethyl]amino}methyl)-2-methoxyphenyl]carbamoyl}ethyl)-2-phenylphenyl]carbamoyl}oxy)-1,1-dimethylpiperidin-1-ium trifluoroacetate] | 3.9 nM | 10.5 nM
C[N+]1(C)CCC(OC(=O)Nc2cc(CCCC(=O)Nc3ccc(CNC[C@H](O)c4ccc(O)c5[nH]c(=O)ccc45)cc3F)ccc2-c2ccccc2)CC1 [Example 28, 4-({[5-(3-{[2-fluoro-4-({[(2R)-2-hydroxy-2-(8-hydroxy-2-oxo-1,2-dihydroquinolin-5-yl)ethyl]amino}methyl)phenyl]carbamoyl}propyl)-2-phenylphenyl]carbamoyl}oxy)-1,1-dimethylpiperidin-1-ium trifluoroacetate] | 0.7 nM | 10 nM
C[N+]1(C)CCC(OC(=O)Nc2cc(CNC(=O)COc3ccc(CNC[C@H](O)c4ccc(O)c5[nH]c(=O)ccc45)cc3)ccc2-c2ccccc2)CC1 [Example 81, 4-({[5-({2-[4-({[(2R)-2-hydroxy-2-(8-hydroxy-2-oxo-1,2-dihydroquinolin-5-yl)ethyl]amino}methyl)phenoxy]acetamide}methyl)-2-phenylphenyl]carbamoyl}oxy)-1,1-dimethylpiperidin-1-ium trifluoroacetate] | 8.7 nM | 25.1 nM
C[N+]1(C)CCC(OC(=O)Nc2cc(CCC(=O)Nc3ccc(CNC[C@H](O)c4ccc(O)c5[nH]c(=O)ccc45)c(Cl)c3)ccc2-c2ccccc2)CC1 [Example 3, 4-({[5-(2-{[3-chloro-4-({[(2R)-2-hydroxy-2-(8-hydroxy-2-oxo-1,2-dihydroquinolin-5-yl)ethyl]amino}methyl)phenyl]carbamoyl}ethyl)-2-phenylphenyl]carbamoyl}oxy)-1,1-dimethylpiperidin-1-ium trifluoroacetate] | 9.7 nM | 16.2 nM

The remaining compounds from weak to strong by EC50 [1], led by results:

EC50 [1] | IC50 [2] | Structure (SMILES)
10 nM | 27.5 nM | C[N+]1(C)[C@@H]2CC(OC(=O)Nc3cc(CCC(=O)Nc4ccc(CCCNC[C@H](O)c5ccc(O)c6[nH]c(=O)ccc56)cc4)ccc3-c3ccccc3)C[C@H]1[C@@H]1O[C@@H]12 (stereo partly drawn) [Example 73, (1R,2R,4S,5S,7S)-7-({[5-(2-{[4-(3-{[(2R)-2-hydroxy-2-(8-hydroxy-2-oxo-1,2-dihydroquinolin-5-yl)ethyl]amino}propyl)phenyl]carbamoyl}ethyl)-2-phenylphenyl]carbamoyl}oxy)-9,9-dimethyl-3-oxa-9-azatricyclo[3.3.1.0^2,4]nonan-9-ium trifluoroacetate]
8.7 nM | 37.8 nM | C[N+]1(C)CCC(OC(=O)Nc2cc(CCCCOc3ccc(CNC[C@H](O)c4ccc(O)c5[nH]c(=O)ccc45)cc3)ccc2-c2ccccc2)CC1 [Example 61, 4-{[(5-{4-[4-({[(2R)-2-hydroxy-2-(8-hydroxy-2-oxo-1,2-dihydroquinolin-5-yl)ethyl]amino}methyl)phenoxy]butyl}-2-phenylphenyl)carbamoyl]oxy}-1,1-dimethylpiperidin-1-ium trifluoroacetate]
6.6 nM | 11.7 nM | C[N+]1(C)CCC(OC(=O)Nc2cc(CCCC(=O)Nc3ccc(CNC[C@H](O)c4ccc(O)c5[nH]c(=O)ccc45)cn3)ccc2-c2ccccc2)CC1 [Example 24, 4-({[5-(3-{[5-({[(2R)-2-hydroxy-2-(8-hydroxy-2-oxo-1,2-dihydroquinolin-5-yl)ethyl]amino}methyl)pyridin-2-yl]carbamoyl}propyl)-2-phenylphenyl]carbamoyl}oxy)-1,1-dimethylpiperidin-1-ium trifluoroacetate]
1.3 nM | 74.1 nM | C[N+]1(C)CCC(OC(=O)Nc2cc(CCCOCCCCCNC[C@H](O)c3ccc(O)c4[nH]c(=O)ccc34)ccc2-c2ccccc2)CC1 [Example 78, 4-{[(5-{3-[(5-{[(2R)-2-hydroxy-2-(8-hydroxy-2-oxo-1,2-dihydroquinolin-5-yl)ethyl]amino}pentyl)oxy]propyl}-2-phenylphenyl)carbamoyl]oxy}-1,1-dimethylpiperidin-1-ium trifluoroacetate]
1.2 nM | 22 nM | COc1cc(NC(=O)CCCc2ccc(-c3ccccc3)c(NC(=O)O[C@@H]3C[C@@H]4[C@H]5O[C@H]5[C@H](C3)[N+]4(C)C)c2)c(Cl)cc1CNC[C@H](O)c1ccc(O)c2[nH]c(=O)ccc12 [Example 34, (1R,2R,4S,5S,7S)-7-({[5-(3-{[2-chloro-4-({[(2R)-2-hydroxy-2-(8-hydroxy-2-oxo-1,2-dihydroquinolin-5-yl)ethyl]amino}methyl)-5-methoxyphenyl]carbamoyl}propyl)-2-phenylphenyl]carbamoyl}oxy)-9,9-dimethyl-3-oxa-9-azatricyclo[3.3.1.0^2,4]nonan-9-ium trifluoroacetate]
